The NIST ThermoML archive (doi:10.1021/je301095j)

Test: xn = mol fraction of the nth substance listed
Settings: 101 kPa, Liquid; for kinematic viscosity: Capillary tube (Ostwald / Ubbelohde) method; for mass density: Vibrating tube method

COCCOC [1,2-dimethoxyethane] + CCCCCCCCO
Settings	kinematic viscosity [m2/s]	mass density [kg/m3]
283.15 K, x1 = 0.06697	1.152e-05	833.91
283.15 K, x1 = 0.1224	8.912e-06	835.41
283.15 K, x1 = 0.2171	5.951e-06	838.23
283.15 K, x1 = 0.3108	4.177e-06	841.31
283.15 K, x1 = 0.4036	3.014e-06	844.65
283.15 K, x1 = 0.5046	2.16e-06	848.72
283.15 K, x1 = 0.593	1.65e-06	852.66
283.15 K, x1 = 0.6949	1.225e-06	857.74
283.15 K, x1 = 0.7907	9.43e-07	863.1
283.15 K, x1 = 0.8983	7.18e-07	870.05
283.15 K, x1 = 0.9329	6.62e-07	872.53
293.15 K, x1 = 0.06547	8.238e-06	826.71
293.15 K, x1 = 0.1085	6.898e-06	827.8
293.15 K, x1 = 0.208	4.672e-06	830.48
293.15 K, x1 = 0.3098	3.277e-06	833.51
293.15 K, x1 = 0.4069	2.39e-06	836.71
293.15 K, x1 = 0.5036	1.79e-06	840.25
293.15 K, x1 = 0.5981	1.37e-06	844.1
293.15 K, x1 = 0.6905	1.07e-06	848.29
293.15 K, x1 = 0.7963	8.12e-07	853.72
293.15 K, x1 = 0.896	6.42e-07	859.6
293.15 K, x1 = 0.9434	5.8e-07	862.69
303.15 K, x1 = 0.05281	6.333e-06	819.29
303.15 K, x1 = 0.2029	3.707e-06	822.86
303.15 K, x1 = 0.2197	3.499e-06	823.3
303.15 K, x1 = 0.299	2.72e-06	825.44
303.15 K, x1 = 0.3826	2.122e-06	827.89
303.15 K, x1 = 0.4984	1.531e-06	831.64
303.15 K, x1 = 0.6107	1.14e-06	835.78
303.15 K, x1 = 0.6969	9.2e-07	839.34
303.15 K, x1 = 0.8038	7.15e-07	844.34
303.15 K, x1 = 0.892	5.86e-07	849.04
303.15 K, x1 = 0.935	5.35e-07	851.56
313.15 K, x1 = 0.05472	4.688e-06	812.24
313.15 K, x1 = 0.1071	3.922e-06	813.31
313.15 K, x1 = 0.2145	2.8e-06	815.67
313.15 K, x1 = 0.2882	2.251e-06	817.43
313.15 K, x1 = 0.4028	1.643e-06	820.44
313.15 K, x1 = 0.5028	1.27e-06	823.38
313.15 K, x1 = 0.5955	1.008e-06	826.4
313.15 K, x1 = 0.6897	8.07e-07	829.8
313.15 K, x1 = 0.7898	6.45e-07	833.92
313.15 K, x1 = 0.8945	5.16e-07	838.85
313.15 K, x1 = 0.9681	4.44e-07	842.83

COCCOC [1,2-dimethoxyethane] + CCO
Settings	kinematic viscosity [m2/s]	mass density [kg/m3]
283.15 K, x1 = 0.05379	1.552e-06	805.91
283.15 K, x1 = 0.09719	1.381e-06	811.83
283.15 K, x1 = 0.2113	1.08e-06	825.56
283.15 K, x1 = 0.2968	9.35e-07	834.32
283.15 K, x1 = 0.4056	8.09e-07	843.94
283.15 K, x1 = 0.4865	7.45e-07	850.18
283.15 K, x1 = 0.5971	6.82e-07	857.71
283.15 K, x1 = 0.6948	6.38e-07	863.49
283.15 K, x1 = 0.8257	5.98e-07	870.24
283.15 K, x1 = 0.8749	5.83e-07	872.52
283.15 K, x1 = 0.9456	5.71e-07	875.57
293.15 K, x1 = 0.05746	1.304e-06	797.66
293.15 K, x1 = 0.09986	1.17e-06	803.22
293.15 K, x1 = 0.1453	1.07e-06	808.77
293.15 K, x1 = 0.2138	9.37e-07	816.42
293.15 K, x1 = 0.2947	8.24e-07	824.42
293.15 K, x1 = 0.399	7.25e-07	833.43
293.15 K, x1 = 0.4877	6.64e-07	840.1
293.15 K, x1 = 0.5965	6.09e-07	847.24
293.15 K, x1 = 0.6885	5.75e-07	852.56
293.15 K, x1 = 0.8249	5.39e-07	859.38
293.15 K, x1 = 0.8772	5.26e-07	861.72
293.15 K, x1 = 0.9542	5.13e-07	864.93
303.15 K, x1 = 0.04309	1.14e-06	786.92
303.15 K, x1 = 0.1038	9.89e-07	794.71
303.15 K, x1 = 0.2082	8.13e-07	806.41
303.15 K, x1 = 0.2955	7.17e-07	814.8
303.15 K, x1 = 0.3926	6.39e-07	822.94
303.15 K, x1 = 0.497	5.82e-07	830.54
303.15 K, x1 = 0.5918	5.43e-07	836.55
303.15 K, x1 = 0.6991	5.1e-07	842.5
303.15 K, x1 = 0.8103	4.86e-07	847.89
303.15 K, x1 = 0.8876	4.73e-07	851.26
303.15 K, x1 = 0.9199	4.68e-07	852.57
313.15 K, x1 = 0.04639	9.59e-07	778.57
313.15 K, x1 = 0.1049	8.49e-07	785.84
313.15 K, x1 = 0.211	7.05e-07	797.27
313.15 K, x1 = 0.2977	6.27e-07	805.28
313.15 K, x1 = 0.3787	5.75e-07	811.92
313.15 K, x1 = 0.4959	5.21e-07	820.25
313.15 K, x1 = 0.6512	4.7e-07	829.41
313.15 K, x1 = 0.6979	4.62e-07	831.83
313.15 K, x1 = 0.8168	4.39e-07	837.35
313.15 K, x1 = 0.8803	4.32e-07	840.03
313.15 K, x1 = 0.9384	4.23e-07	842.37

COCCOC [1,2-dimethoxyethane] + CCCCCO
Settings	kinematic viscosity [m2/s]	mass density [kg/m3]
283.15 K, x1 = 0.04484	5.31e-06	824.28
283.15 K, x1 = 0.07064	–	825.63
283.15 K, x1 = 0.1021	4.09e-06	827.27
283.15 K, x1 = 0.2104	2.73e-06	833.01
283.15 K, x1 = 0.3077	2.01e-06	838.24
283.15 K, x1 = 0.4078	1.54e-06	843.7
283.15 K, x1 = 0.4902	1.27e-06	848.25
283.15 K, x1 = 0.5751	–	853
283.15 K, x1 = 0.712	8.27e-07	860.78
283.15 K, x1 = 0.7978	7.25e-07	865.75
283.15 K, x1 = 0.8137	–	866.69
283.15 K, x1 = 0.8957	6.35e-07	871.5
283.15 K, x1 = 0.9347	–	873.81
283.15 K, x1 = 0.9473	5.96e-07	874.57
293.15 K, x1 = 0.04837	3.98e-06	816.95
293.15 K, x1 = 0.07064	–	818.04
293.15 K, x1 = 0.09244	3.32e-06	819.11
293.15 K, x1 = 0.1962	–	824.24
293.15 K, x1 = 0.2048	2.24e-06	824.66
293.15 K, x1 = 0.3078	1.65e-06	829.83
293.15 K, x1 = 0.408	1.28e-06	834.94
293.15 K, x1 = 0.497	1.05e-06	839.55
293.15 K, x1 = 0.595	8.65e-07	844.67
293.15 K, x1 = 0.6985	7.25e-07	850.18
293.15 K, x1 = 0.7088	–	850.73
293.15 K, x1 = 0.7978	6.17e-07	855.54
293.15 K, x1 = 0.8137	–	856.41
293.15 K, x1 = 0.896	5.4e-07	860.92
293.15 K, x1 = 0.9071	–	861.54
293.15 K, x1 = 0.9541	5.01e-07	864.14
303.15 K, x1 = 0.04441	3.14e-06	809.26
303.15 K, x1 = 0.1118	2.45e-06	812.32
303.15 K, x1 = 0.1947	1.89e-06	816.15
303.15 K, x1 = 0.3088	1.39e-06	821.48
303.15 K, x1 = 0.4056	1.11e-06	826.06
303.15 K, x1 = 0.4948	9.29e-07	830.35
303.15 K, x1 = 0.6215	–	836.52
303.15 K, x1 = 0.7076	6.5e-07	840.79
303.15 K, x1 = 0.8038	5.69e-07	845.62
303.15 K, x1 = 0.8519	–	848.06
303.15 K, x1 = 0.8998	5.08e-07	850.52
303.15 K, x1 = 0.9524	4.8e-07	853.23
313.15 K, x1 = 0.06014	2.34e-06	802.42
313.15 K, x1 = 0.0969	2.08e-06	803.97
313.15 K, x1 = 0.1159	–	804.76
313.15 K, x1 = 0.2221	–	809.31
313.15 K, x1 = 0.3249	1.13e-06	813.76
313.15 K, x1 = 0.4049	9.58e-07	817.27
313.15 K, x1 = 0.4955	8.09e-07	821.28
313.15 K, x1 = 0.599	6.82e-07	825.94
313.15 K, x1 = 0.7001	5.86e-07	830.56
313.15 K, x1 = 0.801	5.16e-07	835.25
313.15 K, x1 = 0.9031	4.59e-07	840.05
313.15 K, x1 = 0.9604	4.34e-07	842.78
